Drawing on PMC7846937 (Bioorganic chemistry, 2020), this text covers Ki for 22 compounds.

One may read the Ki as a dissociation constant, usually derived from enzyme kinetics or from competition with a known ligand. Low values mean higher affinity, high ones lower affinity.

Assay in all cases: stopped-flow CO2 hydration assay
Assay type in all cases: biochemical

The target of assay [1] is hCA II (Homo sapiens, UniProt P00918).
Assay [2] deals with hCA I (Homo sapiens, UniProt P00915).
For assay [3], the target named is hCA XII (Homo sapiens, UniProt O43570).
hCA XII, sequence (O43570 30-289 limits assumed): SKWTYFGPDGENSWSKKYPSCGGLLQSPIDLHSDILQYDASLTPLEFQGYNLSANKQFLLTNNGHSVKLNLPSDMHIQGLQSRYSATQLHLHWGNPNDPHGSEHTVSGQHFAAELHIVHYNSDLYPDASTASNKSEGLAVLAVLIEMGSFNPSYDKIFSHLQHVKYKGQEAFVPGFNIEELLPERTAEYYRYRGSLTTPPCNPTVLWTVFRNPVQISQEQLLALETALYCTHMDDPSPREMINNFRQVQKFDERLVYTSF

hCA I, sequence (P00915 2-261): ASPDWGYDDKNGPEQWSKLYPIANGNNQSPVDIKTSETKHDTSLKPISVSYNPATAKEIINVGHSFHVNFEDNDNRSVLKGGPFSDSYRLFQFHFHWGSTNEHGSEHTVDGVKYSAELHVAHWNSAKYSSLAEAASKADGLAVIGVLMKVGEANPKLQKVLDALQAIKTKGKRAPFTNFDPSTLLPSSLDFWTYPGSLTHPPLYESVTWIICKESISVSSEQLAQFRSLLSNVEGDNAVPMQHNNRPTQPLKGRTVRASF

As to `Cc1cc(C)[n+](-c2cccc(S(N)(=O)=O)c2)c(C(C)C)c1` [19h, 2-Isopropyl-4,6-dimethyl-1-(3-sulfamoylphenyl)pyridinium hexafluorophosphate], the Ki in assay [1] came to 10.4 nM; in assay [2] it was 60.7 nM; in assay [3], 7.4 nM.

As for `Cc1cc(C)[n+](-c2cccc(S(N)(=O)=O)c2)c(C)c1C` [19t, 2,3,4,6-Tetramethyl-1-(3-sulfamoylphenyl)pyridinium hexafluorophosphate], the values for the Ki in assay [1], in assay [2] and in assay [3] were 2.6 nM, 54.9 nM and 3.4 nM, respectively.

In the case of `CCc1cc(C)cc(C)[n+]1-c1cccc(S(N)(=O)=O)c1` [19f, 2-Ethyl-4,6-dimethyl-1-(3-sulfamoylphenyl)pyridinium hexafluorophosphate], the Ki in assay [1] was 12.9 nM; in assay [2], 63.6 nM; in assay [3], 3.7 nM.

In the case of `Cc1cc(-c2ccccc2)cc(-c2ccccc2)[n+]1-c1cccc(S(N)(=O)=O)c1` [19o, 2-Methyl-4,6-diphenyl-1-(3-sulfamoyl-phenyl)-pyridinium hexafluorophosphate], the figures for the Ki in assay [1], in assay [2] and in assay [3] were 3.4 nM, 8.5 nM and 0.96 nM, respectively.

On to `NS(=O)(=O)c1cccc(-[n+]2c(-c3ccccc3)cc(-c3ccccc3)cc2-c2ccccc2)c1` [19x, 2,4,6-Triphenyl-1-(3-sulfamoylphenyl)pyridinium hexafluorophosphate], for which the Ki in assay [1] is 13 nM; in assay [2], 58 nM; in assay [3] it was 21.7 nM.

Consider `CCc1cc(-c2ccccc2)cc(-c2ccccc2)[n+]1-c1cccc(S(N)(=O)=O)c1` [19p, 2-Ethyl-4,6-diphenyl-1-(3-sulfamoyl-phenyl)-pyridinium hexafluorophosphate], for which the Ki in assay [1] worked out at 4 nM; in assay [2], 18 nM; in assay [3], 1.4 nM.

As to `CCCCc1cc(C)cc(CCCC)[n+]1-c1cccc(S(N)(=O)=O)c1` [19e, 2,6-Di-n-butyl-4-methyl-1-(3-sulfamoylphenyl)pyridinium hexafluorophosphate], the Ki in assay [1] came out at 58.1 nM; in assay [2] it was 462 nM; in assay [3] it was 51.5 nM.

On to `CCCc1cc(-c2ccccc2)cc(CCC)[n+]1-c1cccc(S(N)(=O)=O)c1` [19l, 2,6-Di-n-propyl-4-phenyl-1-(3-sulfamoyl-phenyl)-pyridinium hexafluorophosphate], for which the Ki came out at 18 nM in assay [1], 75.8 nM in assay [2] and 21.5 nM in assay [3].

As to `Cc1cc(C(C)C)[n+](-c2cccc(S(N)(=O)=O)c2)c(C(C)C)c1` [19d, 2,6-Diisopropyl-4-methyl-1-(3-sulfamoylphenyl)pyridinium hexafluorophosphate], the Ki in assay [1] was found to be 9.6 nM; in assay [2], 33.8 nM; in assay [3], 5.5 nM.

As for `CCCc1cc(C)cc(C)[n+]1-c1cccc(S(N)(=O)=O)c1` [19g, 2,4-Dimethyl-6-n-propyl-1-(3-sulfamoylphenyl)pyridinium hexafluorophosphate], the inhibition constant Ki was determined as 7.2 nM in assay [1], 70.1 nM in assay [2] and 5.4 nM in assay [3].

`Cc1cc(C)[n+](-c2cccc(S(N)(=O)=O)c2)c(-c2ccccc2)c1` [19v, 2,4-Dimethyl-6-phenyl-1-(3-sulfamoylphenyl)pyridinium hexafluorophosphate]: the Ki in assay [1] worked out at 8.8 nM; in assay [2] it was 72.3 nM; in assay [3], 4.7 nM.

Consider `CCc1cc(C)cc(CC)[n+]1-c1cccc(S(N)(=O)=O)c1` [19b, 2,6-Diethyl-4-methyl-1-(3-sulfamoylphenyl)pyridinium hexafluorophosphate], for which the inhibitory constant (Ki) in assay [1] was 8.5 nM; in assay [2] it was 86.3 nM; in assay [3] it was 4 nM.

Consider `CCCCc1cc(-c2ccccc2)cc(CCCC)[n+]1-c1cccc(S(N)(=O)=O)c1` [19n, 2,6-Di-n-butyl-4-phenyl-1-(3-sulfamoyl-phenyl)-pyridinium hexafluorophosphate], for which the inhibitory constant (Ki) in assay [1] was found to be 49.3 nM; in assay [2], 433 nM; in assay [3], 40.2 nM.

Turning to `Cc1c2cc(c(C)[n+]1-c1cccc(S(N)(=O)=O)c1)CCCCCCCCC2` [19u, 2,6-Dimethyl-3,5-(1,9-nonane-diyl)-1-(3-sulfamoyl-phenyl)pyridinium hexafluorophosphate], the Ki in assay [1] was 39.8 nM; in assay [2], 256 nM; in assay [3], 25.1 nM.

Turning to `CCc1cc(-c2ccccc2)cc(CC)[n+]1-c1cccc(S(N)(=O)=O)c1` [19k, 2,6-Diethyl-4-phenyl-1-(3-sulfamoyl-phenyl)-pyridinium hexafluorophosphate], the Ki in assay [1] stood at 10.2 nM; in assay [2], 71.6 nM; in assay [3], 12.1 nM.

Take `CCCCc1cc(-c2ccccc2)cc(-c2ccccc2)[n+]1-c1cccc(S(N)(=O)=O)c1` [19s, 2-n-Butyl-4,6-diphenyl-1-(3-sulfamoyl-phenyl)-pyridinium hexafluorophosphate]: the Ki worked out at 43.9 nM in assay [1], 137 nM in assay [2] and 35.2 nM in assay [3].

Consider `Cc1cc(-c2ccccc2)[n+](-c2cccc(S(N)(=O)=O)c2)c(-c2ccccc2)c1` [19w, 4-Methyl-2,6-diphenyl-1-(3-sulfamoylphenyl)pyridinium hexafluorophosphate], for which the values for the Ki in assay [1], in assay [2] and in assay [3] were 6.7 nM, 19.7 nM and 8.8 nM, respectively.

For the compound `Cc1cc(C)[n+](-c2cccc(S(N)(=O)=O)c2)c(C)c1` [19a, 2,4,6-Trimethyl-1-(3-sulfamoylphenyl)pyridinium hexafluorophosphate], affinity in assay [2] was put at a Ki of 82.1 nM.

As to `CCCCc1cc(C)cc(C)[n+]1-c1cccc(S(N)(=O)=O)c1` [19i, 2-n-Butyl-4,6-dimethyl-1-(3-sulfamoylphenyl)pyridinium hexafluorophosphate], the values for the Ki in assay [1], in assay [2] and in assay [3] were 6.8 nM, 65.1 nM and 4 nM, respectively.

Consider `CC(C)c1cc(-c2ccccc2)cc(C(C)C)[n+]1-c1cccc(S(N)(=O)=O)c1` [19m, 2,6-Diisopropyl-4-phenyl-1-(3-sulfamoylphenyl)pyridinium hexafluorophosphate], for which the Ki worked out at 9.3 nM in assay [1], 41.8 nM in assay [2] and 5.8 nM in assay [3].

On to `Cc1cc(-c2ccccc2)cc(C)[n+]1-c1cccc(S(N)(=O)=O)c1` [19j, 2,6-Dimethyl-4-phenyl-1-(3-sulfamoyl-phenyl)-pyridinium hexafluorophosphate], for which the Ki in assay [1] turned out to be 1.2 nM; in assay [2], 65.3 nM; in assay [3], 0.87 nM.

On to `CCCc1cc(C)cc(CCC)[n+]1-c1cccc(S(N)(=O)=O)c1` [19c, 4-Methyl-2,6-di-n-propyl-1-(3-sulfamoylphenyl)pyridinium hexafluorophosphate], for which the Ki turned out to be 7.8 nM in assay [1], 84.5 nM in assay [2] and 3.6 nM in assay [3].
